Format in all cases: functional, cell-based
The subject of one assay is A549. The assay can be described thus: Anticancer activity against human A549 cells by HTS assay.
In another assay the test system is NCI-H157. Nature of the assay: Anticancer activity against human NCI-H157 cells by HTS assay.
Assay [1] in a line: Anticancer activity against human H460 cells by HTS assay. Conditions: NCI-H460.
The next assay has as its system NCI-H1792. Nature of the assay: Anticancer activity against human NCI-H1792 cells by HTS assay.
Assay [2] is described as follows: Anticancer activity against human NCI-H1944 cells by HTS assay.
A short description of assay [3]: Anticancer activity against human […] cells by HTS assay.
In the next assay the test system is NCI-H522. Nature of the assay: Anticancer activity against human NCI-H522 cells by HTS assay.
The subject of a further assay is HOP-62. The assay can be described thus: Anticancer activity against human HOP62 cells by HTS assay.
The nature of assay [4]: Anticancer activity against human H1299 cells by HTS assay. The following applies: NCI-H1299.
Assay [5] can be described thus: Anticancer activity against human 292G cells by HTS assay.
Assay [6] in a line: Anticancer activity against human Calu1 cells by HTS assay. Conditions: Calu-1.
The nature of assay [7]: Anticancer activity against human M4E cells by HTS assay.
Assay [8] in a line: Anticancer activity against human LOXIMVI cells by HTS assay. The following applies: LOX IMVI.
The subject of the next assay is M14. Nature of the assay: Anticancer activity against human M14 cells by HTS assay.
Assay [9] can be described thus: Anticancer activity against human SKBR cells by HTS assay.
Another assay concerns HeLa. The assay can be described thus: Anticancer activity against human HeLa cells by HTS assay.

The record followed here is ChEMBL document CHEMBL3352654, “Synthesis, biological evaluation and SAR analysis of O-alkylated analogs of quercetin for anticancer” (Bioorg Med Chem Lett, 2014).

The IC50 is the midpoint of a concentration-inhibition curve. In the case of `COc1cc(O)c2c(=O)c(OC)c(-c3ccc(O)c(O)c3)oc2c1`, the IC50 is 5.4 µM in the assay with A549; 13 µM with NCI-H157; 7.02 µM in [1]; 19.7 µM in the assay with NCI-H1792; 0.46 µM in [2]; over 50 µM in assay [3]. Besides, the IC50 was over 50 µM with NCI-H522; 13.2 µM in the assay with HOP-62; 15.6 µM in assay [4]; 24 µM in assay [5]; 39.6 µM in [6]; 21.3 µM in assay [7]. Also, the IC50 in [8] was 24.1 µM; in the assay with M14 it was 21.7 µM; in assay [9], 5.28 µM; with HeLa, 11.1 µM.
As to `CCOc1c(-c2ccc(O)c(O)c2)oc2cc(O)cc(O)c2c1=O`, the IC50 is over 50 µM in the assay on A549; over 50 µM in the assay on NCI-H157; over 50 µM in [1]; over 50 µM in the assay with NCI-H1792; 0.39 µM in assay [2]; over 50 µM in assay [3]. Besides, the IC50 (with NCI-H522; in the assay with HOP-62; in assay [4]; in assay [5]; in assay [6]; in [7]) was over 50 µM in each case. The IC50 (in [8]; in the assay on M14; in assay [9]; with HeLa) was over 50 µM in each case.
For `CCCOc1c(-c2ccc(O)c(O)c2)oc2cc(O)cc(O)c2c1=O`, the IC50 with A549 came to 0.79 µM; with NCI-H157 it was 0.8 µM; in [1] it was 1.69 µM; in the assay on NCI-H1792, 3.13 µM; in assay [2], 0.91 µM; in assay [3], 3.02 µM. Also, the IC50 in the assay with NCI-H522 came to 1.4 µM; in the assay on HOP-62, 2.44 µM; in assay [4], 6.03 µM; in [5], 2.11 µM; in [6], 7.08 µM; in assay [7], 1.9 µM. The IC50 in assay [8] was determined as 2.38 µM; in the assay on M14, 2.26 µM; in [9], 0.45 µM; in the assay on HeLa, 0.57 µM.
As to `CCCCOc1c(-c2ccc(O)c(O)c2)oc2cc(O)cc(O)c2c1=O`, the IC50 in the assay on A549 stood at 13.4 µM; in the assay on NCI-H157, 6.32 µM; in assay [1] it was 19.7 µM; in the assay on NCI-H1792, 4.57 µM; in [2] it was 7.04 µM; in [3] it was 31.7 µM. In addition, the IC50 with NCI-H522 is 12.6 µM; in the assay on HOP-62, 21 µM; in [4], over 50 µM; in assay [5], 28.9 µM; in [6] it was over 50 µM; in assay [7], 18.9 µM. Besides, the IC50 in assay [8] came to 26.3 µM; with M14 it was 25.6 µM; in assay [9] it was 9.18 µM; in the assay on HeLa, 10.6 µM.
Regarding `CCOc1ccc(-c2oc3cc(O)cc(O)c3c(=O)c2O)cc1O`, the IC50 was 1.24 µM in the assay on A549; 0.67 µM in the assay on NCI-H157; 1.03 µM in [1]; 1 µM with NCI-H1792; 1.78 µM in [2]; 2.85 µM in [3]. Also, the IC50 was found to be 22.1 µM in the assay with NCI-H522; 4.45 µM in the assay with HOP-62; 1.77 µM in assay [4]; 4.11 µM in assay [5]; 1.5 µM in assay [6]; 6.18 µM in [7]. The IC50 in [8] came to 1.14 µM; in the assay on M14 it was 0.94 µM; in [9], 3.19 µM; in the assay on HeLa it was 1.2 µM.
Consider `CCCOc1ccc(-c2oc3cc(O)cc(O)c3c(=O)c2O)cc1O`, for which the IC50 is 13.9 µM in the assay on A549; 10.2 µM with NCI-H157; 12.2 µM in assay [1]; 13.3 µM in the assay with NCI-H1792; 21.4 µM in assay [2]; 31.1 µM in assay [3]. Moreover, the IC50 in the assay on NCI-H522 is 49.5 µM; with HOP-62 it was 21.9 µM; in assay [4] it was 46.5 µM; in assay [5] it was 28.5 µM; in assay [6], 26.5 µM; in [7], 27.4 µM. Besides, the IC50 in assay [8] was over 50 µM; with M14, 25.4 µM; in assay [9], 18 µM; in the assay on HeLa, 21.6 µM.
In the case of `CCCCOc1ccc(-c2oc3cc(O)cc(O)c3c(=O)c2O)cc1O`, the IC50 amounted to 5.44 µM with A549; 6.1 µM with NCI-H157; 6.84 µM in assay [1]; 10.5 µM in the assay on NCI-H1792; 5.85 µM in assay [2]; 18.2 µM in [3]. For the same compound, the IC50 was 17.7 µM with NCI-H522; 12.4 µM in the assay with HOP-62; 16 µM in assay [4]; 9.89 µM in assay [5]; 25.3 µM in assay [6]; 17.1 µM in assay [7]. Moreover, the IC50 worked out at 28.8 µM in assay [8], 19.4 µM with M14, 6.72 µM in assay [9] and 9.48 µM with HeLa.
For the compound `CCOc1cc(O)c2c(=O)c(OCC)c(-c3ccc(O)c(O)c3)oc2c1`, the IC50 came out at 1.19 µM in the assay with A549; 8.09 µM in the assay on NCI-H157; 5.25 µM in [1]; 2.51 µM in the assay with NCI-H1792; 10.1 µM in assay [2]; 29.1 µM in assay [3]. Further, the IC50 in the assay with NCI-H522 is over 50 µM; in the assay on HOP-62 it was 10.6 µM; in assay [4], 12.8 µM; in assay [5] it was 17.2 µM; in assay [6] it was 37.4 µM; in assay [7], 20.4 µM. The IC50 in assay [8] is 15.2 µM; with M14, 20.3 µM; in assay [9], 6.26 µM; in the assay with HeLa, 0.91 µM.
With `CCCOc1cc(O)c2c(=O)c(OCCC)c(-c3ccc(O)c(O)c3)oc2c1`, the IC50 was 26.2 µM in the assay with A549; 40.9 µM in the assay with NCI-H157; 31.1 µM in [1]; 30.6 µM in the assay on NCI-H1792; over 50 µM in assay [2]; over 50 µM in [3]. Besides, the IC50 with NCI-H522 is over 50 µM; in the assay with HOP-62 it was 47.2 µM; in assay [4], over 50 µM; in [5], over 50 µM; in assay [6], 31.9 µM; in [7], over 50 µM. The IC50 was over 50 µM in [8], over 50 µM in the assay on M14, 34.5 µM in [9] and 47 µM in the assay with HeLa.
`CCCCOc1cc(O)c2c(=O)c(OCCCC)c(-c3ccc(O)c(O)c3)oc2c1`: the IC50 in the assay with A549 worked out at 1.13 µM; in the assay with NCI-H157, 5.92 µM; in [1] it was 3.05 µM; in the assay on NCI-H1792 it was 6.03 µM; in [2] it was 1.17 µM; in [3] it was 8.92 µM. Also, the IC50 with NCI-H522 was over 50 µM; with HOP-62, 4.68 µM; in assay [4], 5.05 µM; in [5] it was 8.75 µM; in [6], 5.46 µM; in assay [7], 11.2 µM. The IC50 stood at 2.55 µM in assay [8], 3.47 µM in the assay with M14, 4.58 µM in [9] and 6.09 µM in the assay with HeLa.
On to `CCOc1cc(O)c2c(=O)c(O)c(-c3ccc(OCC)c(O)c3)oc2c1`, for which the IC50 in the assay with A549 was 22.6 µM; with NCI-H157, over 50 µM; in [1], 9.7 µM; in the assay on NCI-H1792 it was over 50 µM; in assay [2] it was 42.4 µM; in assay [3], 25.5 µM. Further, the IC50 is 7.21 µM in the assay with NCI-H522; 30.2 µM with HOP-62; 21.8 µM in [4]; over 50 µM in [5]; over 50 µM in assay [6]; over 50 µM in [7]. The IC50 was 49.4 µM in [8], over 50 µM with M14, over 50 µM in assay [9] and 20.2 µM in the assay on HeLa.
In the case of `CCCOc1cc(O)c2c(=O)c(O)c(-c3ccc(OCCC)c(O)c3)oc2c1`, the IC50 with A549 worked out at 4.02 µM; with NCI-H157, 0.84 µM; in [1], 1.14 µM; in the assay on NCI-H1792 it was 3.63 µM; in [2], 4.42 µM; in assay [3], 5.63 µM. The IC50 in the assay with NCI-H522 is 8.14 µM; with HOP-62, 3.28 µM; in [4], 4.84 µM; in assay [5], 5.31 µM; in assay [6], 9.39 µM; in assay [7], 5.77 µM. Further, the IC50 in assay [8] worked out at 3.68 µM; in the assay on M14, 7.61 µM; in assay [9], 4.72 µM; in the assay on HeLa, 5.18 µM.
For the compound `CCCOc1cc(O)c2c(=O)c(OCCC)c(-c3ccc(OCCC)c(OCCC)c3)oc2c1`, the IC50 in the assay on A549 was 47.9 µM; with NCI-H157, over 50 µM; in assay [1] it was over 50 µM; with NCI-H1792, over 50 µM; in assay [2], over 50 µM; in [3] it was over 50 µM. Besides, the IC50 (in the assay on NCI-H522; in the assay on HOP-62; in [4]; in assay [5]; in [6]; in assay [7]) was over 50 µM in each case. Besides, the IC50 (in assay [8]; in the assay with M14; in assay [9]; in the assay with HeLa) was over 50 µM in each case.
As to `CCCCOc1cc(O)c2c(=O)c(OCCCC)c(-c3ccc(OCCCC)c(OCCCC)c3)oc2c1`, the IC50 with A549 was 48.4 µM; in the assay with NCI-H157, over 50 µM; in assay [1], over 50 µM; in the assay with NCI-H1792, over 50 µM; in assay [2], over 50 µM; in assay [3], over 50 µM. Besides, the IC50 (with NCI-H522; in the assay with HOP-62; in assay [4]; in assay [5]; in [6]; in assay [7]) was over 50 µM each time. The IC50 (in [8]; in the assay on M14; in [9]; in the assay on HeLa) was over 50 µM each time.
